The numbers were not newly measured in patent US20090197941A1, “Pharmaceutical Compositons for the Treatment of Chronic Obstructive Pulmonary Disease” (priority 2005, published 2009), which cites them from elsewhere.

Structures are written as SMILES.

Data set [1] concerns the target CB1 receptors (Homo sapiens, UniProt P21554). Conditions: known in the art.
Data set [2] deals with CB2 receptors (Homo sapiens, UniProt P34972). The following applies: known in the art.
The test system of data set [3] is U87 human glioma cells. The following applies: increasing concentrations of CBD, Boyden chamber, read-out: IC50 of tumour cell migration.

Chain of CB2 receptors (P34972 whole entry): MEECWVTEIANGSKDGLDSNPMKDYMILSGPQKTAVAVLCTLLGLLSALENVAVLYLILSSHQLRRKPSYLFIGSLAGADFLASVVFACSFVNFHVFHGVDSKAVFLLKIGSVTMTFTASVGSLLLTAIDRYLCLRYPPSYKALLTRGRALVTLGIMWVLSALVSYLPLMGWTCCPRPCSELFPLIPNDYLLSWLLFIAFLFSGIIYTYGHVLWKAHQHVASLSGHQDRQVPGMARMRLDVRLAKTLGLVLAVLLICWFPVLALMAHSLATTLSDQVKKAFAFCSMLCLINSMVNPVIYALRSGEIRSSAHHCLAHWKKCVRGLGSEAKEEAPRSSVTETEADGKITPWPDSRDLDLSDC
Chain of CB1 receptors (P21554 whole entry): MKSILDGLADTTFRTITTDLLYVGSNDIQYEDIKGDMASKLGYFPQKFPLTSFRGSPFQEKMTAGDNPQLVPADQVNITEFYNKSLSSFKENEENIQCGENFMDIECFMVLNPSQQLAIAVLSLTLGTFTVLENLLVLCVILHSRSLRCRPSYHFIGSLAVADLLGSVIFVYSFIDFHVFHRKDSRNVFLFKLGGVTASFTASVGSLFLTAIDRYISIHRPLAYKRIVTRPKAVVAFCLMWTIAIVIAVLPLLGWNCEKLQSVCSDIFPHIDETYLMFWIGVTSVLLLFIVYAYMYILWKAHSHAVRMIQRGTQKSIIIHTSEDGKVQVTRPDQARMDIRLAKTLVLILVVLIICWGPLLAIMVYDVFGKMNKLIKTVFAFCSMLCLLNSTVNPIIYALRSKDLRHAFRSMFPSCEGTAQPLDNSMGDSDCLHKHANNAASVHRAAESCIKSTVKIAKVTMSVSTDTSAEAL

Take `C=C(C)[C@@H]1CCC(C)=C[C@H]1c1c(O)cc(CCCCC)cc1O` [CBD, cannabidiol]: the “action at CB1 receptors” value in data set [1] was “only very weakly”. Also, the “action at CB2 receptors” value in data set [2] is listed as “not to act”. In addition, in data set [3], the IC50 is 5.05 ± 1.1 µM.
